This note sets out measurements from patent US8785445B2 (Array BioPharma Inc., priority 2008, dated 2014).

The first experiment has as its target T1, human DP2 (Homo sapiens, UniProt Q9Y5Y4).
T1 construct: expressed in transfected cells; membranes prepared
T1 sequence (Q9Y5Y4 1-395): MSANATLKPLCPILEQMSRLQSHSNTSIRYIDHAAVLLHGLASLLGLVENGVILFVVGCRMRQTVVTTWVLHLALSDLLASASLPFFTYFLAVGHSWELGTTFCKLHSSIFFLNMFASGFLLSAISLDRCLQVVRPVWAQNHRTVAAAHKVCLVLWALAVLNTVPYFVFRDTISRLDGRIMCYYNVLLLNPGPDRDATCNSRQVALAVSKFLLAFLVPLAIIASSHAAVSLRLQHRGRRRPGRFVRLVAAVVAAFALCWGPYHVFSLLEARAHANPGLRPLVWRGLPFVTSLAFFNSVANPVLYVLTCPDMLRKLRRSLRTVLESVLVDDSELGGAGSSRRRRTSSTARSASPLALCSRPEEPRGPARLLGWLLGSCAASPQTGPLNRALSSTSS
Kind of experiment: DP-2 binding inhibition assay (3H-PGD2, membranes of DP2-expressing K562 cells). The settings on record: 0.1% BSA, read-out: EC50 (nM) 0.1% BSA. The method in brief: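 Membranes from K562 clones stably expressing human DP2 were incubated 60 min at room temperature with 3H-PGD2 and compound, with 0.1% BSA, 1% HSA or 4% HSA, then filtered and counted.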
One may read the EC50 as the concentration needed to bring the measured effect to its halfway point. As for `O=C(Nc1cccc(-c2ccc(Cl)cc2)n1)c1ccc(Oc2c(Cl)cc3c(c2C2CC2)OCCC3C(=O)O)cc1` (stereo not shown) [Example 108, Sodium 6-chloro-7-(4-(6-(4-chlorophenyl)pyridin-2-ylcarbamoyl)phenoxy)-8-cyclopropylchroman-4-carboxylate], the EC50 came to 8 nM.
Still for that read-out and setting: in the case of `Cc1cc2nc(NC(=O)c3ccc(Oc4cc5c(cc4C#N)C(C(=O)O)CCO5)cc3)sc2cc1C` (stereo not shown) [Example 200, 6-cyano-7-(4-(5,6-dimethylbenzo[d]thiazol-2-ylcarbamoyl)phenoxy) chroman-4-carboxylic acid] it was 7.6 nM; in that of `N#Cc1cc2c(cc1Oc1ccc(C(=O)Nc3cnc4ccccc4c3)cc1)OCCC2C(=O)O` (stereo not shown) [Example 10, 6-Cyano-7-(4-(quinolin-3-ylcarbamoyl)phenoxy)chroman-4-carboxylic acid], 37.8 nM.

The same experiment, now with this note: 4% HSA, read-out: EC50 (nM) 4% HSA.
On to `Cn1nc(C(C)(C)C)cc1NC(=O)c1ccc(Oc2cc3c(cc2Cl)C(C(=O)O)CCO3)cc1` (stereo not shown) [Example 178, 7-(4-(3-tert-butyl-1-methyl-1H-pyrazol-5-ylcarbamoyl)phenoxy)-6-chlorochroman-4-carboxylic acid], for which the EC50 came to 951 nM.
As for `O=C(NCCc1ccc(C(F)(F)F)nc1C1CC1)c1ccc(Oc2cc3c(cc2Cl)C(C(=O)O)CCO3)cc1` (stereo not shown) [Example 186, Sodium 6-Chloro-7-(4-(2-(2-cyclopropyl-6-(trifluoromethyl)pyridin-3-yl)ethylcarbamoyl)phenoxy)chroman-4-carboxylate], the EC50 was determined as 32.6 nM.
With `O=C(Nc1cccc(-c2ccc(Cl)cc2)n1)c1ccc(Oc2c(Cl)cc3c(c2Br)OCCC3C(=O)O)cc1` (stereo not shown) [Example 106, Sodium 8-bromo-6-chloro-7-(4-(6-(4-chlorophenyl)pyridin-2-ylcarbamoyl)phenoxy)chroman-4-carboxylate], the EC50 is 87.7 nM.
In the case of `O=C(Nc1ccc2cc(Cl)ccc2n1)c1ccc(Oc2cc3c(cc2Cl)[C@@H](C(=O)O)CCO3)cc1` (single isomer, unassigned; enantiomer 2) [Example 37, 6-Chloro-7-(4-(6-chloroquinolin-2-ylcarbamoyl)phenoxy)chroman-4-carboxylic acid, Enantiomer 2], the 50% effective concentration (EC50) was determined as 4000 nM.
On the same count and under the same terms, for `O=C(Nc1cccc(-c2ccc(Cl)cc2)n1)c1ccc(Oc2c(Cl)cc3c(c2C2CC2)OCCC3C(=O)O)cc1` (stereo not shown) [Example 108, Sodium 6-chloro-7-(4-(6-(4-chlorophenyl)pyridin-2-ylcarbamoyl)phenoxy)-8-cyclopropylchroman-4-carboxylate] the value was 144 nM; for `N#Cc1cc2c(cc1Oc1ccc(C(=O)Nc3nnc(-c4ccccc4)s3)cc1)OCCC2C(=O)O` (stereo not shown) [Example 146, 6-Cyano-7-(4-(5-phenyl-1,3,4-thiadiazol-2-ylcarbamoyl)phenoxy)chroman-4-carboxylic acid], 728 nM.
The same measure, in the same setting: for `O=C(Nc1cnc(-c2cccc(Cl)c2)cn1)c1ccc(Oc2cc3c(cc2Cl)C(C(=O)O)CCO3)cc1` (stereo not shown) [Example 96, 6-Chloro-7-(4-(5-(3-chlorophenyl)pyrazin-2-ylcarbamoyl)phenoxy)chroman-4-carboxylic acid] the value was 274 nM; for `O=C(Nc1cncc(-c2cccc(Cl)c2)c1)c1ccc(Oc2cc3c(cc2Cl)C(C(=O)O)CCO3)cc1` (stereo not shown) [Example 127, 6-Chloro-7-(4-(5-(3-chlorophenyl)pyridin-3-ylcarbamoyl)phenoxy)chroman-4-carboxylic acid], 690 nM.
Still for that read-out and setting: for `O=C(Nc1ccc(-c2ccccc2Cl)cn1)c1ccc(Oc2cc3c(cc2Cl)C(C(=O)O)CCO3)cc1` (stereo not shown) [Example 117, 6-Chloro-7-(4-(5-(2-chlorophenyl)pyridin-2-ylcarbamoyl)phenoxy)chroman-4-carboxylic acid] the value was 264 nM; for `N#Cc1cc2c(cc1Oc1ccc(C(=O)Nc3cccc(-c4ccc(C(F)(F)F)cc4)n3)cc1)OCCC2C(=O)O` (stereo not shown) [Example 42, 6-Cyano-7-(4-(6-(4-(trifluoromethyl)phenyl)pyridin-2-ylcarbamoyl)-phenoxy)chroman-4-carboxylic acid], 36.1 nM; for `O=C(Nc1ccc2ccc(Cl)cc2n1)c1ccc(Oc2cc3c(cc2Cl)C(C(=O)O)CCO3)cc1` (stereo not shown) [Example 17, 6-Chloro-7-(4-(7-chloroquinolin-2-ylcarbamoyl)phenoxy)chroman-4-carboxylic acid], 178 nM.
As for `O=C(Nc1ccc(-c2cccc(C(F)(F)F)c2)nn1)c1ccc(Oc2cc3c(cc2Cl)C(C(=O)O)CCO3)cc1` (stereo not shown) [Example 99, Sodium 6-chloro-7-(4-(6-(3-(trifluoromethyl)phenyl)pyridazin-3-ylcarbamoyl)phenoxy)chroman-4-carboxylate], the EC50 was found to be 235 nM.
Still for that read-out and setting: for `N#Cc1cc2c(cc1Oc1ccc(C(=O)NCCc3ccc(C(F)(F)F)nc3)cc1)OCCC2C(=O)O` (stereo not shown) [Example 12, 6-Cyano-7-(4-(2-(6-(trifluoromethyl)pyridin-3-yl)ethylcarbamoyl)phenoxy)chroman-4-carboxylic acid] the value was 667 nM.
